The values that follow come from patent US8614327B2 (Vertex Pharmaceuticals Incorporated, priority 2004, dated 2013).

The structures appear in SMILES notation. Where only a bound is given, the exact number is not on record here.

The experiment deals with T1, ΔF508-CFTR (Homo sapiens, UniProt P13569, DEL508-508).
T1 construct: expressed in transfected cells
Put plainly: Membrane potential optical (FRET/VIPR) assay, identification of potentiator compounds. Type of experiment: cell-based. The settings on record: Table 3, assay not given; for % Activity: relative efficacy. From the text: I) Membrane Potential Optical Methods for Assaying ΔF508-CFTR Modulation Properties of Compounds The optical membrane potential assay utilized voltage-sensitive FRET sensors described by Gonzalez and Tsien (See, Gonzalez, J. E. and R. Y. Tsien (1995) “Voltage sensing by fluorescence resonance energy transfer in single cells” Biophys J 69(4): 1272-80, and Gonzalez, J. E. and R. Y. Tsien (1997) “Improved indicators of cell membrane potential that use fluorescence resonance energy transfer” Chem Biol 4(4): 269-77) in combination with instrumentation for measuring fluorescence changes such as the Voltage/Ion Probe Reader (VIPR) (See, […]. Oades, et al. (1999) “Cell-based assays and instrumentation for screening ion-channel targets” Drug Discov Today 4(9): 431-439). These voltage sensitive assays are based on the change in fluorescence resonant energy transfer (FRET) between the membrane-soluble, voltage-sensitive dye, DiSBAC2(3), and a fluorescent phospholipid, CC2-DMPE, which is attached to the outer leaflet of the plasma membrane and acts as a FRET donor. Changes in membrane potential (Vm) cause the negatively charged DiSBAC2(3) to redistribute across the plasma membrane and the amount of energy transfer from CC2-DMPE changes accordingly. The changes in fluorescence emission were monitored using VIPR which is an integrated liquid handler and fluorescent detector designed to conduct cell-based screens in 96- or 384-well microtiter plates. To identify potentiators of ΔF508-CFTR, a double-addition HTS assay format was developed. During the first addition, a Cl^--free medium with or without test compound was added to each well. […] (in mM) NaCl 160, KCl 4.5, CaCl2 2, MgCl2 1, HEPES 10, pH 7.4 with NaOH. • Chloride-free bath solution: Chloride salts in Bath Solution #1 are substituted with gluconate salts. • CC2-DMPE: Prepared as a 10 mM stock solution in DMSO and stored at -20° C. • DiSBAC2(3): Prepared as a 10 mM stock in DMSO and stored at -20° C. NIH3T3 mouse fibroblasts stably expressing ΔF508-CFTR are used for optical measurements of membrane potential. […] For all optical assays, the cells were seeded at 30,000/well in 384-well matrigel-coated plates and cultured for 2 hrs at 37° C. before culturing at 27° C. for 24 hrs. for the potentiator assay.

T1 sequence (P13569 with tags, fused parts or gaps DEL508-508): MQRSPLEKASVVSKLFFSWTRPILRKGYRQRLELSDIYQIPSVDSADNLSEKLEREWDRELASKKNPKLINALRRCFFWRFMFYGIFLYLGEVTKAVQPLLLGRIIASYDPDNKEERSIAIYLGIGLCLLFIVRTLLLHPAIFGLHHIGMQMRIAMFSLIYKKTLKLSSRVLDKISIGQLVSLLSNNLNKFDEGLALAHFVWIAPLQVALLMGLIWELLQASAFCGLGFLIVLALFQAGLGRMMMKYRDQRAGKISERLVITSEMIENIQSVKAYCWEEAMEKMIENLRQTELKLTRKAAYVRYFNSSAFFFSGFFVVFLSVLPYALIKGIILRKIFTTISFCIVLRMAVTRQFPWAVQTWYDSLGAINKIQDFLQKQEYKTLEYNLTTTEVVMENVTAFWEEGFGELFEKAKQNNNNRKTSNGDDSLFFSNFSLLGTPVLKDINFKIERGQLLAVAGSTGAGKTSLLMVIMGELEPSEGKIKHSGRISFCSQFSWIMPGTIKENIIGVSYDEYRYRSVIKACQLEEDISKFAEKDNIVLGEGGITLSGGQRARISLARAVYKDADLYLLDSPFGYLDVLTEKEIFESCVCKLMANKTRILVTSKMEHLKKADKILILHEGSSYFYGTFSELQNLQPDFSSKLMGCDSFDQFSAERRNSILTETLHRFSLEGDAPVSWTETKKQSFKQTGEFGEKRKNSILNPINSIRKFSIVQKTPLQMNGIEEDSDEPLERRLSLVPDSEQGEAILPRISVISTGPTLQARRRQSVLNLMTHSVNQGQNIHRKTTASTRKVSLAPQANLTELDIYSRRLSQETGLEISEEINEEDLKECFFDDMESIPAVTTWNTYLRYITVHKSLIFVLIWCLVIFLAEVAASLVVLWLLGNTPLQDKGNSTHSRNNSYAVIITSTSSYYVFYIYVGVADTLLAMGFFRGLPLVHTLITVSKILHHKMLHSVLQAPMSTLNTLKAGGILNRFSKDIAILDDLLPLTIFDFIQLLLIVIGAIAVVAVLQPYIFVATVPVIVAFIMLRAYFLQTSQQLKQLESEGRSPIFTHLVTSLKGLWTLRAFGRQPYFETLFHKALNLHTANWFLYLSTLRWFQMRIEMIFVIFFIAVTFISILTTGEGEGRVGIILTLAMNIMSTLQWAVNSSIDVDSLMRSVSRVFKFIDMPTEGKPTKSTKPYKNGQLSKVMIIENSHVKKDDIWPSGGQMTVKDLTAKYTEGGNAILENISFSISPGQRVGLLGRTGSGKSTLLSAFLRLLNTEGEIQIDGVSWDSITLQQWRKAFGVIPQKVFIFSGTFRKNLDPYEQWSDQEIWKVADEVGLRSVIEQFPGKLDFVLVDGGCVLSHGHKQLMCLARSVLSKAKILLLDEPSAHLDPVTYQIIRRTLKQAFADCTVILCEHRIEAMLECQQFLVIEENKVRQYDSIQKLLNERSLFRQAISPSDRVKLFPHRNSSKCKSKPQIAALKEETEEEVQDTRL

Usually EC50 stands for the concentration at which the effect is half-maximal. On to `N#Cc1cc(Cl)cc(Cl)c1NC(=O)c1c[nH]c2ccccc2c1=O` [Compound 369, N-(2,4-dichloro-6-cyano-phenyl)-4-oxo-1H-quinoline-3-carboxamide], for which the concentration giving a half-maximal response (EC50) is 10 to 25 µM and the “% Activity” value is “+ (<25%)”.

In the case of `O=C(Nc1ccccc1N1CCCCC1)c1c[nH]c2ccccc2c1=O` [Compound 26, 4-oxo-N-[2-(1-piperidyl)phenyl]-1H-quinoline-3-carboxamide], the EC50 is below 10 µM and the “% Activity” value is “++ (between 25% to 100%)”.

For `O=C(Nc1ccccc1CCO)c1c[nH]c2ccccc2c1=O` [Compound 40, N-[2-(2-hydroxyethyl)phenyl]-4-oxo-1H-quinoline-3-carboxamide], the EC50 lay within 25 to 60 µM and the “% Activity” value is given as “+ (<25%)”.

With `CCOC(=O)Nc1cc(NC(=O)c2c[nH]c3ccccc3c2=O)ccc1C` [Compound 141, [2-methyl-5-[(4-oxo-1H-quinolin-3-yl)carbonylamino]phenyl]aminoformic acid ethyl ester], the EC50 was 10 to 25 µM and the “% Activity” value is on record as “++ (between 25% to 100%)”.

Consider `CCc1cc(C(C)(C)C)c(O)cc1NC(=O)c1c[nH]c2cccc(O)c2c1=O` [Compound 507, N-(2-ethyl-5-hydroxy-4-tert-butyl-phenyl)-5-hydroxy-4-oxo-1H-quinoline-3-carboxamide], for which the EC50 is below 10 µM and the “% Activity” value is listed as “++ (between 25% to 100%)”.

For `O=C(Nc1ccc(C23CC4CC(CC(C4)C2)C3)cc1)c1c[nH]c2ccccc2c1=O` [Compound 455, N-[4-(1-adamantyl)phenyl]-4-oxo-1H-quinoline-3-carboxamide], the EC50 was below 10 µM and the “% Activity” value is “++ (between 25% to 100%)”.

For the compound `O=C(Nc1cccc2c1CCC2)c1c[nH]c2ccccc2c1=O` [Compound 373, N-indan-4-yl-4-oxo-1H-quinoline-3-carboxamide], the concentration giving a half-maximal response (EC50) was below 10 µM and the “% Activity” value is on record as “++ (between 25% to 100%)”.

Regarding `COc1cccc(-c2ccccc2NC(=O)c2c[nH]c3ccccc3c2=O)c1F` [Compound 363, N-[2-(2-fluoro-3-methoxy-phenyl)phenyl]-4-oxo-1H-quinoline-3-carboxamide], the EC50 is below 10 µM and the “% Activity” value is recorded as “+++ (>100%)”.

For `Cc1ccc(C(F)(F)F)cc1NC(=O)c1c[nH]c2ccc(F)cc2c1=O` [Compound 678, 6-fluoro-N-[2-methyl-5-(trifluoromethyl)phenyl]-4-oxo-1H-quinoline-3-carboxamide], the EC50 was below 10 µM and the “% Activity” value is “++ (between 25% to 100%)”.

Take `COc1cccc2[nH]cc(C(=O)Nc3ccc4cc[nH]c4c3)c(=O)c12` [Compound 479, N-(1H-indol-6-yl)-5-methoxy-4-oxo-1H-quinoline-3-carboxamide]: the EC50 is below 10 µM and the “% Activity” value is listed as “++ (between 25% to 100%)”.

For `CC(C)(C)c1cc2cc[nH]c2cc1NC(=O)c1c[nH]c2ccc(F)cc2c1=O` [Compound 124, 6-fluoro-4-oxo-N-(5-tert-butyl-1H-indol-6-yl)-1H-quinoline-3-carboxamide], the EC50 is below 10 µM and the “% Activity” value is recorded as “+++ (>100%)”.

`Cc1c(NC(=O)c2c[nH]c3ccccc3c2=O)cccc1C(F)(F)F` [Compound 387, N-[2-methyl-3-(trifluoromethyl)phenyl]-4-oxo-1H-quinoline-3-carboxamide]: the EC50 is below 10 µM and the “% Activity” value is “++ (between 25% to 100%)”.

Take `O=C(Nc1ccccc1-c1csc2ccccc12)c1c[nH]c2ccccc2c1=O` [Compound 417, N-(2-(benzo[b]thiophen-3-yl)phenyl)-1,4-dihydro-4-oxoquinoline-3-carboxamide]: the EC50 was below 10 µM and the “% Activity” value is “++ (between 25% to 100%)”.

For `C=C(C)c1ccccc1NC(=O)c1c[nH]c2ccccc2c1=O` [Compound 445, N-(2-isopropenylphenyl)-4-oxo-1H-quinoline-3-carboxamide], the EC50 was below 10 µM and the “% Activity” value is “+++ (>100%)”.

Turning to `O=C(Nc1ccccc1-c1ccc2c(c1)OCO2)c1c[nH]c2ccccc2c1=O` [Compound 135, N-(2-benzo[1,3]dioxol-5-ylphenyl)-4-oxo-1H-quinoline-3-carboxamide], the concentration giving a half-maximal response (EC50) is below 10 µM and the “% Activity” value is listed as “+++ (>100%)”.

As for `CC1CCN(S(=O)(=O)c2ccc3[nH]cc(C(=O)Nc4cc5[nH]ccc5cc4C(C)(C)C)c(=O)c3c2)CC1` [Compound 51, 6-[(4-methyl-1-piperidyl)sulfonyl]-4-oxo-N-(5-tert-butyl-1H-indol-6-yl)-1H-quinoline-3-carboxamide], the EC50 was below 10 µM and the “% Activity” value was “++ (between 25% to 100%)”.

Consider `O=C(Nc1ccc2c(c1)CCO2)c1c[nH]c2ccccc2c1=O` [Compound 467, N-(2,3-dihydrobenzofuran-5-yl)-4-oxo-1H-quinoline-3-carboxamide], for which the EC50 lay in the range of 25 to 60 µM and the “% Activity” value is given as “+ (<25%)”.

Take `CC(C)c1ccc(NC(=O)c2c[nH]c3ccccc3c2=O)cc1N` [Compound 69, N-(3-amino-4-isopropyl-phenyl)-4-oxo-1H-quinoline-3-carboxamide]: the concentration for a half-maximal effect (EC50) was below 10 µM and the “% Activity” value is given as “++ (between 25% to 100%)”.

Regarding `CCOC(=O)NCC(C)(C)c1ccc(NC(=O)c2c[nH]c3ccccc3c2=O)cc1` [Compound 119, [2-methyl-2-[4-[(4-oxo-1H-quinolin-3-yl)carbonylamino]phenyl]-propyl]aminoformic acid ethyl ester], the EC50 is below 10 µM and the “% Activity” value is “++ (between 25% to 100%)”.

Turning to `CC(C)c1ccc(NC(=O)OC(C)(C)C)cc1NC(=O)c1c[nH]c2ccccc2c1=O` [Compound 60, [4-isopropyl-3-[(4-oxo-1H-quinolin-3-yl)carbonylamino]phenyl]aminoformic acid tert-butyl ester], the EC50 was below 10 µM and the “% Activity” value is recorded as “++ (between 25% to 100%)”.

For `CC(C)CNC(=O)c1cc2cc[nH]c2cc1NC(=O)c1c[nH]c2ccccc2c1=O` [Compound 343, N-[5-(Isobutylcarbamoyl)-1H-indol-6-yl]-4-oxo-1H-quinoline-3-carboxamide], the concentration giving a half-maximal response (EC50) lay within 10 to 25 µM and the “% Activity” value was “++ (between 25% to 100%)”.

For `CC1(C)CCNc2cc(NC(=O)c3c[nH]c4ccccc4c3=O)ccc21` [Compound 300, N-(4,4-Dimethyl-1,2,3,4-tetrahydroquinolin-7-yl)-4-oxo-1H-quinoline-3-carboxamide], the EC50 is below 10 µM and the “% Activity” value is recorded as “++ (between 25% to 100%)”.

Regarding `CCC(=O)Nc1cccc(NC(=O)c2c[nH]c3ccccc3c2=O)c1` [Compound 81, 4-oxo-N-(3-propionylaminophenyl)-1H-quinoline-3-carboxamide], the EC50 was in the range of 25 to 60 µM and the “% Activity” value is on record as “+ (<25%)”.

As for `CCOc1cccc2c(=O)c(C(=O)Nc3cc4[nH]ccc4cc3C(C)(C)C)c[nH]c12` [Compound 641, 8-ethoxy-4-oxo-N-(5-tert-butyl-1H-indol-6-yl)-1H-quinoline-3-carboxamide], the 50% effective concentration (EC50) lay within 10 to 25 µM and the “% Activity” value was “+ (<25%)”.

`Cc1ccc(N)cc1NC(=O)c1c[nH]c2ccccc2c1=O` [Compound 94, N-(5-Amino-2-methyl-phenyl)-4-oxo-1H-quinoline-3-carboxamide]: the EC50 is below 10 µM and the “% Activity” value was “++ (between 25% to 100%)”.
